These results are taken from publication PMC7464201, “Synthesis and Cytotoxic Activity of Novel C-23-Modified Asiatic Acid Derivatives” (Molecules, 2020).

In data set [1] the test system is human colon (HCT-116) cancer cell line. The data set can be described thus: MTT cytotoxicity assay, HCT116. The class given is cell-based. The conditions noted are these: for IC50: Homo sapiens, HCT-116, 72 h, six concentrations, mean ± SD of three independent experiments. As to the method:
(§1) To establish a SAR of the C-3 (R2) and C-23 (R1) of the AA derivatives, new compounds were subjected to MTT assays to evaluate their in-vitro antiproliferative activities against ovarian (SKOV-3) and colon (HCT-116) cancer cell lines, the IC50 values (the concentration that inhibits 50% of cell growth) of which are summarized in Table 1. Doxorubicin was used as the positive drug.
(§2) HCT116, SKOV-3, A549, A2780, HepG2, HL-60 and MCF-7 cells were incubated in DMEM with 10% heat-inactivated FBS in a humidified atmosphere of 5.0% CO2 at 37 °C. The in-vitro cytotoxicity of AA derivatives was determined using MTT assay. A 100-μL volume of culture medium at a concentration of 3 × 10^4 cell/mL was added to 96-well plate wells, which were maintained in a humidified atmosphere of 5.0% CO2 at 37 °C. After 24 h, 10 μL solution of AA derivatives and doxorubicin dissolved in DMSO and phophate buffered saline (PBS) and then diluted with DMEM under a concentration gradient, was added in the wells for final concentrations of 100, 10, 1, 0.1, 0.01, 0.001 μM of compounds in HCT116 and SKOV-3 cells and 125, 25, 5, 1, 0.2, 0.04 μM in A549, A2780, HepG2, HL-60 and MCF-7 cells. After 72 h incubation in a humidified atmosphere of 5.0% CO2 at 37 °C, 20 μl MTT solution (5 mg/mL) was added into each well and the cells were incubated. After 4 h, 100 μL HCl aqueous solution (0.01 M) with 10% SDS and 5% isobutanol was added into each well to dissolve the precipitated formazan and the absorbance was read at 570 nm on Thermo Scientific Varioskan Flash plate reader. All IC50 values were averaged from three independent experiments.

The subject of data set [2] is human ovarian (SKOV-3) cancer cell line. In words: MTT cytotoxicity assay, SKOV-3. The class given is cell-based. As to conditions: for IC50: Homo sapiens, SK-OV-3, 72 h, six concentrations, mean ± SD of three independent experiments; for IC50 / cytotoxic activity against SKOV-3 cell line (in words): MTT. As to the method: as §1, §2
On the technique in general: Tetrazolium assays rely on reduction of a dye to a coloured formazan, in cell work by metabolically active cells.

Some results are limits rather than exact numbers.

On to `CNC(=O)[C@@]1(C)[C@@H]2CC[C@]3(C)[C@H](CC=C4[C@@H]5[C@@H](C)[C@H](C)CC[C@]5(C(=O)NCc5ccccc5)CC[C@]43C)[C@@]2(C)C[C@@H](OC)[C@@H]1OC(C)=O` [Compound 14b, α-Methoxy-3β-Acetoxy-Urs-12-Ene-28-Benzyl Amide-23-Methylamide], for which, in data set [1] (MTT), the half-inhibitory concentration (IC50) is 34.2 ± 7.87 µM. With `CO[C@@H]1C[C@@]2(C)[C@@H](CC[C@]3(C)[C@@H]2CC=C2[C@@H]4[C@@H](C)[C@H](C)CC[C@]4(C(=O)NCc4ccccc4)CC[C@]23C)[C@](C)(C(N)=O)[C@H]1O` [Compound 13a, α-Methoxy-3β-Hydroxy-Urs-12-Ene-28-Benzyl Amide-23-Amide], in data set [1] (MTT), inhibition was half-maximal at 7.45 ± 1.62 µM (IC50). Regarding `CCNC(=O)[C@@]1(C)[C@@H]2CC[C@]3(C)[C@H](CC=C4[C@@H]5[C@@H](C)[C@H](C)CC[C@]5(C(=O)NCc5ccccc5)CC[C@]43C)[C@@]2(C)C[C@@H](OC)[C@@H]1O` [Compound 13c, α-Methoxy-3β-Hydroxy-Urs-12-Ene-28-Benzyl Amide-23-Ethylamide], the IC50 in data set [1] (MTT) stood at 11 ± 4.28 µM. The same measure, in the same setting: the figure for `CO[C@@H]1C[C@@]2(C)[C@@H](CC[C@]3(C)[C@@H]2CC=C2[C@@H]4[C@@H](C)[C@H](C)CC[C@]4(C(=O)NCc4ccccc4)CC[C@]23C)[C@](C)(C(=O)N(C)C)[C@H]1O` [Compound 13j, α-Methoxy-3β-Hydroxy-Urs-12-Ene-28-Benzyl Amide-23-Dimethylamide] is 9.6 ± 4.58 µM.

Consider `CO[C@@H]1C[C@]2(C)[C@H]3CC=C4[C@@H]5[C@@H](C)[C@H](C)CC[C@]5(C(=O)NCc5ccccc5)CC[C@@]4(C)[C@]3(C)CC[C@H]2[C@](C)(C=O)[C@H]1OC(C)=O` [Compound 12, α-Methoxy-3β-Acetoxy-23-Oxo-Urs-12-Ene-28-Benzyl Amide], for which the figures for the 50% inhibitory concentration (IC50) in data set [2] and in data set [1] (MTT) were above 100 µM and 6.69 ± 1.15 µM, respectively. In the same order, the values of `COc1cccc2c1C(=O)c1c(O)c3c(c(O)c1C2=O)C[C@@](O)(C(=O)CO)C[C@@H]3O[C@H]1C[C@H](N)[C@H](O)[C@H](C)O1` [Doxorubicin, reference compound] are 0.08 ± 0.01 µM and 0.03 ± 0.02 µM. In data set [1] (MTT), `CCOC(=O)CCCNC(=O)[C@@]1(C)[C@@H]2CC[C@]3(C)[C@H](CC=C4[C@@H]5[C@@H](C)[C@H](C)CC[C@]5(C(=O)NCc5ccccc5)CC[C@]43C)[C@@]2(C)C[C@@H](OC)[C@@H]1O` [Compound 13i, N-(2α-Methoxy-3β-Hydroxy-Urs-12-Ene-28-Benzylamide-23-Oyl)-4-Aminobutyric Ethyl Ester] yielded an IC50 of 15.2 ± 1.99 µM.

Take `CO[C@@H]1C[C@@]2(C)[C@@H](CC[C@]3(C)[C@@H]2CC=C2[C@@H]4[C@@H](C)[C@H](C)CC[C@]4(C(=O)NCc4ccccc4)CC[C@]23C)[C@](C)(C=O)C1=O` [Compound 5, α-Methoxy-3,23-Dioxo-Urs-12-Ene-28-Benzylamide]: the results for the concentration for half-maximal inhibition (IC50) in data set [2] and in data set [1] (MTT) were above 100 µM and 26 ± 6.68 µM, respectively. In the same order, the values of `CO[C@@H]1C[C@@]2(C)[C@@H](CC[C@]3(C)[C@@H]2CC=C2[C@@H]4[C@@H](C)[C@H](C)CC[C@]4(C(=O)NCc4ccccc4)CC[C@]23C)[C@](C)(C(N)=O)[C@H]1OC(C)=O` [Compound 14a, α-Methoxy-3β-Acetoxy-Urs-12-Ene-28-Benzyl Amide-23-Amide] are 7.12 ± 2.61 µM and 6.52 ± 3.03 µM. In the case of `COC(=O)C(C)NC(=O)C1(C)C(O)C(OC)CC2(C)C1CCC1(C)C2CC=C2C3C(C)C(C)CCC3(C(=O)NCc3ccccc3)CCC21C` [Compound 13f, N-(2α-Methoxy-3β-Hydroxy-Urs-12-Ene-28-Benzylamide-23-Oyl)-L-Alanine Methyl Ester], the IC50 is 3.09 ± 1.54 µM in data set [2] and 4.35 ± 1.05 µM in data set [1] (MTT).

As to `COC(=O)[C@@]1(C)[C@@H]2CC[C@]3(C)[C@H](CC=C4[C@@H]5[C@@H](C)[C@H](C)CC[C@]5(C(=O)NCc5ccccc5)CC[C@]43C)[C@@]2(C)C[C@@H](OC)[C@@H]1O` [Compound 9, α-Methoxy-3β-Hydroxy-Urs-12-Ene-28-Benzylamide-23-Methyl Ester], the half-inhibitory concentration (IC50) came to 6.81 ± 3.87 µM in data set [2] and 3.07 ± 1.48 µM in data set [1] (MTT). In addition, the “fold more active than AA against SKOV-3 cell line” value in data set [2] (relative to AA) is recorded as 3 fold. Moreover, the “fold more active than AA against HCT116 cell line” value in data set [1] (relative to AA) was found to be 8 fold. Consider `CO[C@@H]1C[C@]2(C)[C@H]3CC=C4[C@@H]5[C@@H](C)[C@H](C)CC[C@]5(C(=O)NCc5ccccc5)CC[C@@]4(C)[C@]3(C)CC[C@H]2[C@](C)(C=O)[C@H]1O` [Compound 6, α-Methoxy-3β-Hydroxy-23-Oxo-Urs-12-Ene-28-Benzylamide], for which the IC50 in data set [1] (MTT) came out at 8.46 ± 1.64 µM. Turning to `CO[C@@H]1C[C@@]2(C)[C@@H](CC[C@]3(C)[C@@H]2CC=C2[C@@H]4[C@@H](C)[C@H](C)CC[C@]4(C(=O)NCc4ccccc4)CC[C@]23C)[C@](C)(C(=O)O)[C@H]1O` [Compound 7, α-Methoxy-3β-Hydroxy-Urs-12-Ene-28-Benzylamide-23-Oic Acid], the IC50 came to 31.9 ± 2.59 µM in data set [2] and 16.7 ± 1.68 µM in data set [1] (MTT). The like results for `CCNC(=O)[C@@]1(C)[C@@H]2CC[C@]3(C)[C@H](CC=C4[C@@H]5[C@@H](C)[C@H](C)CC[C@]5(C(=O)NCc5ccccc5)CC[C@]43C)[C@@]2(C)C[C@@H](OC)[C@@H]1OC(C)=O` [Compound 14c, α-Methoxy-3β-Acetoxy-Urs-12-Ene-28-Benzyl Amide-23-Ethylamide] were, in that order, above 100 µM and above 100 µM.

The molecule `CO[C@@H]1C[C@@]2(C)[C@@H](CC[C@]3(C)[C@@H]2CC=C2[C@@H]4[C@@H](C)[C@H](C)CC[C@]4(C(=O)NCc4ccccc4)CC[C@]23C)[C@](C)(C(=O)NC(C)C)[C@H]1O` [Compound 13d, α-Methoxy-3β-Hydroxy-Urs-12-Ene-28-Benzyl Amide-23-Isopropylamide] displayed an IC50 in data set [1] (MTT) of 8.57 ± 3.04 µM.

With `CO[C@@H]1C[C@@]2(C)[C@@H](CC[C@]3(C)[C@@H]2CC=C2[C@@H]4[C@@H](C)[C@H](C)CC[C@]4(C(=O)NCc4ccccc4)CC[C@]23C)[C@](C)(C(=O)NC(C)C)[C@H]1OC(C)=O` [Compound 14d, α-Methoxy-3β-Acetoxy-Urs-12-Ene-28-Benzyl Amide-23-Isopropylamide], the IC50 in data set [2] and in data set [1] (MTT) was above 100 µM each time.

Turning to `COC(=O)C(NC(=O)C1(C)C(O)C(OC)CC2(C)C1CCC1(C)C2CC=C2C3C(C)C(C)CCC3(C(=O)NCc3ccccc3)CCC21C)C(C)C` [Compound 13g, N-(2α-Methoxy-3β-Hydroxy-Urs-12-Ene-28-Benzylamide-23-Oyl)-L-Valine Methyl Ester], 9.69 ± 1.64 µM corresponded to half-maximal inhibition in data set [1] (MTT) (IC50). Consider `C#CCNC(=O)[C@@]1(C)[C@@H]2CC[C@]3(C)[C@H](CC=C4[C@@H]5[C@@H](C)[C@H](C)CC[C@]5(C(=O)NCc5ccccc5)CC[C@]43C)[C@@]2(C)C[C@@H](OC)[C@@H]1O` [Compound 13e, α-Methoxy-3β-Hydroxy-Urs-12-Ene-28-Benzyl Amide-23-Propargylamide], for which the IC50 was determined as 6.72 ± 4.32 µM in data set [2] and 8.03 ± 2.79 µM in data set [1] (MTT). On to `COC(=O)[C@]1(C)C(=O)[C@H](OC)C[C@]2(C)[C@H]3CC=C4[C@@H]5[C@@H](C)[C@H](C)CC[C@]5(C(=O)NCc5ccccc5)CC[C@@]4(C)[C@]3(C)CC[C@@H]12` [Compound 11, α-Methoxy-3-Oxo-Urs-12-Ene-28-Benzyl Amide-23-Methyl Ester], for which, in data set [2], the half-maximal inhibitory concentration (IC50) is above 100 µM and the “cytotoxic activity against SKOV-3 cell line (in words)” value is reported as “lost activity”. In data set [1] (MTT), the concentration for half-maximal inhibition (IC50) is above 100 µM and the “cytotoxic activity against HCT116 cell line (in words)” value is “lost activity”. In the case of `C#CCNC(=O)[C@@]1(C)[C@@H]2CC[C@]3(C)[C@H](CC=C4[C@@H]5[C@@H](C)[C@H](C)CC[C@]5(C(=O)NCc5ccccc5)CC[C@]43C)[C@@]2(C)C[C@@H](OC)[C@@H]1OC(C)=O` [Compound 14e, α-Methoxy-3β-Acetoxy-Urs-12-Ene-28-Benzyl Amide-23-Propargylamide], the IC50 in data set [2] and in data set [1] (MTT) was above 100 µM throughout. Take `COC(=O)C(Cc1ccccc1)NC(=O)C1(C)C(O)C(OC)CC2(C)C1CCC1(C)C2CC=C2C3C(C)C(C)CCC3(C(=O)NCc3ccccc3)CCC21C` [Compound 13h, N-(2α-Methoxy-3β-Hydroxy-Urs-12-Ene-28-Benzylamide-23-oyl)-L-Phenylalanine Methyl Ester]: in data set [2], the IC50 was above 100 µM and the “cytotoxic activity against SKOV-3 cell line (in words)” value is on record as “not active”. The same molecule gave an IC50 in data set [1] (MTT) above 50 µM. Consider `CCOC(=O)CCCNC(=O)[C@@]1(C)[C@@H]2CC[C@]3(C)[C@H](CC=C4[C@@H]5[C@@H](C)[C@H](C)CC[C@]5(C(=O)NCc5ccccc5)CC[C@]43C)[C@@]2(C)C[C@@H](OC)[C@@H]1OC(C)=O` [Compound 14i, N-(2α-Methoxy-3β-Acetoxy-Urs-12-Ene-28-Benzylamide-23-Oyl)-4-Aminobutyric Ethyl Ester], for which the IC50 in data set [2] and in data set [1] (MTT) was above 100 µM in each case. `CNC(=O)[C@@]1(C)[C@@H]2CC[C@]3(C)[C@H](CC=C4[C@@H]5[C@@H](C)[C@H](C)CC[C@]5(C(=O)NCc5ccccc5)CC[C@]43C)[C@@]2(C)C[C@@H](OC)[C@@H]1O` [Compound 13b, α-Methoxy-3β-Hydroxy-Urs-12-Ene-28-Benzyl Amide-23-Methylamide] displayed an IC50 in data set [1] (MTT) of 7.45 ± 3.53 µM.

Broadly, the IC50 is the concentration that gives 50% inhibition.
